Data taken from PMC2346451 (PLoS ONE, 2008).

Columns and labels:
[1] = molecular target: rat TRPV1 (rTRPV1) (Rattus norvegicus, UniProt O35433); test: Whole-cell patch clamp of rat TRPV1 expressed in HEK-293T cells; assay type: cell-based; settings: for Decrease of pH 5-evoked TRPV1 current: 300 µM, −40 mV; for Activation of TRPV1 current: analyzed at −40 mV and +40 mV
Protocol: (§1) Transformed human embryonic kidney-293 (HEK-293T) cells were grown in Dulbecco's modified Eagle's medium (DMEM)+F-12 supplemented with 10% fetal calf serum, and 1% penicillin/streptomycin in 5% CO2 at 37°C. Cells grown to 90% confluence in 35 mm Petri dishes were transiently transfected with plasmid DNA encoding a TRP channel construct (1 µg). Rat TRPV1 (rTRPV1) was cloned into an enhanced green fluorescent protein-containing vector (pTracer-CMV2; Invitrogen, Carlsbad, CA). Chicken TRPV1 (cTRPV1), the chicken rat TRPV1 chimera (crcTRPV1), rat TRPV2 (rTRPV2), mouse TRPV3 (mTRPV3), mouse TRPV4 (mTRPV4), rat TRPM8 (rTRPM8), and rat TRPA1 (rTRPA1), were cloned into pcDNA3 and co-transfected with enhanced green fluorescent protein (0.1 µg) to follow expression. The cTRPV1 and crcTRPV1 clones were kindly provided by Dr. David Julius. Recordings were carried out 24–36 hours after transfection. Cells were split via trypsin EDTA, plated on glass coverslips at 5–10% confluence, and used 2–3 hours later.
(§2) Electrophysiological experiments were performed using the whole-cell patch-clamp technique at room temperature. Modified Ringer's solution with low chloride and nominal calcium contained (in mM): 130 sodium hydroxide, 5 potassium chloride, 1 magnesium chloride, 10 sodium 4-(2-hydroxyethyl)-1-piperazineethanesulfonic acid, 10 2-(N-morpholino)ethanesulfonic acid, and 20 glucose (pH 7.4; 310 milli-osmolar). […] 2 mM calcium chloride was included in the external solution where noted. To activate TRPV1, the modified Ringer's solution was made at pH 5 (low pH solution) and the chloride concentration was kept to a minimum to prevent contamination of the TRPV1 currents with acid-activated chloride currents. For recordings from heterologously expressing cells, the internal pipette solution contained (in mM): 125 cesium-Methanesulfonate, 10 cesium (1.2-bis(o-aminophenoxy)ethane-N,N,N',N'-tetraacetic acid, 8 sodium chloride, 4 magnesium adenosine triphosphate, and 10 HEPES (pH 7.2; 290 mOSM; nominal free calcium concentrations). For TRPA1 and dorsal root ganglion recordings, the internal pipette solution contained (in mM): 110 cesium-Methanesulfonate, 0.5 cesium4BAPTA, 8 sodium chloride, 0.2 calcium chloride, 4 magnesium-ATP, 4 sodium-GTP, and 10 4-(2-hydroxyethyl)-1-piperazineethanesulfonic acid (pH 7.2; 290 mOSM; 100 nM free calcium internal). MaxChelator was used to calculate the free calcium concentration (http://www.stanford.edu/cpatton/maxc.html).
(§3) Recordings were obtained using an Axopatch 200B amplifier, Digidata 1322A analog-to-digital converter, and pClamp 8.01 software (Molecular Devices, Union City, CA). Data were low-pass filtered at 2 kHz and digitized at 5 kHz. Borosilicate glass pipettes (World Precision Instruments, Sarasota, FL) were typically 3 MΩ pipette resistance after fire polishing. Cell capacitance was measured for each cell, and access resistance compensated to ∼80%. Recordings were begun ∼5 minutes after initial rupture to ensure initial steady state conditions. Current-voltage (I-V) relations were obtained using a ramp protocol. Voltage ramps (400 ms) from −100 to +40 or +100 mV were applied every 1–2 seconds and the holding potential was either −70 mV or 0 mV (see Figure Legends). A 40 ms step was added at the beginning and end of the ramp (i.e. at −100 mV, +40 mV or +100 mV). Liquid junction potentials were not corrected.
(§4) The dose response curves were fit with the Hill equation, where [drawing 8] and [A] is the concentration of agonist or blocker, N is the Hill coefficient, and KD is the [A] for Imeasured/Imax = 0.5. The term apparent dissociation constant is used in place of the half concentration of excitation and inhibition. […] Averaged data are presented as mean±standard error (S.E.) throughout. Statistical analysis included paired and unpaired Student's t-test comparisons of the data; p values are reported in the text.

[2] = molecular target: rat TRPA1 (rTRPA1) (Rattus norvegicus, UniProt Q6RI86); test: Whole-cell patch clamp of rat TRPA1 expressed in HEK-293T cells; assay type: cell-based
Protocol: as §1, §2, §3, §4

[3] = molecular target: rat TRPM8 (rTRPM8) (Rattus norvegicus, UniProt Q8R455); test: Whole-cell patch clamp of rat TRPM8 expressed in HEK-293T cells; assay type: cell-based
Protocol: as §1, §2, §3, §4

[4] = molecular target: T1, mouse TRPV3 (mTRPV3) (Mus musculus, UniProt Q8K424); test: Whole-cell patch clamp of mouse TRPV3 expressed in HEK-293T cells; assay type: cell-based
T1 sequence (Q8K424 1-791): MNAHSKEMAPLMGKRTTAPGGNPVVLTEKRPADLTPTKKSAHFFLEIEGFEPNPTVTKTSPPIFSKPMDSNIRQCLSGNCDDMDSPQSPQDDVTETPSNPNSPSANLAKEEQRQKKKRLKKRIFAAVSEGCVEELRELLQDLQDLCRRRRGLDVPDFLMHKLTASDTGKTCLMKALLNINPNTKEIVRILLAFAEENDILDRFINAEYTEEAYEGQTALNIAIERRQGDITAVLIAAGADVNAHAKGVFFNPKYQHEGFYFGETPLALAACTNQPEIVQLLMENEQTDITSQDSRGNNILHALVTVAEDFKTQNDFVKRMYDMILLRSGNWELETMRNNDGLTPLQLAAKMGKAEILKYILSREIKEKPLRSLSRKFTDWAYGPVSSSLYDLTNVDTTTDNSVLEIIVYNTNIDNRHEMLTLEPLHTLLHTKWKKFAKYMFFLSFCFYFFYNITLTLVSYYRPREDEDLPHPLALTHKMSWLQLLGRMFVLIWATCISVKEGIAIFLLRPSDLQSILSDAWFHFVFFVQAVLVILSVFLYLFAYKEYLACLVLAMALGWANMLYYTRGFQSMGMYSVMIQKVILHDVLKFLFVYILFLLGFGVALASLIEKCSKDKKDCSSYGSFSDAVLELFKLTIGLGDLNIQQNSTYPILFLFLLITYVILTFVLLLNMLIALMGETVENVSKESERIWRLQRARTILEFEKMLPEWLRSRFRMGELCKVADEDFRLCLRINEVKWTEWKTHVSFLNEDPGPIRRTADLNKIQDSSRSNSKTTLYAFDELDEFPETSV
Protocol: as §1, §2, §3, §4

[5] = system: dorsal root ganglion neurons; test: Whole-cell patch clamp of acutely isolated dorsal root ganglion neurons; assay type: cell-based, rat
Description: Dorsal root ganglion neurons from all spinal levels were removed from postnatal day 12 to 20 Sprague Dawley rats and the nerve roots trimmed. Calcium- and magnesium-free (CMF) Hank's solution contained (in mM): 136.9 sodium chloride, 5.4 potassium chloride, 0.34 dibasic sodium orthophosphate, 0.44 monopotassium phosphate, 5.6 glucose, 5 4-(2-hydroxyethyl)-1-piperazineethanesulfonic acid, 0.005% phenol red, pH 7.4. CMF Hank's was used throughout the isolation and enzymatic treatments. The isolated ganglia were treated for 20 minutes at 37°C with 20 U/ml of papain (Worthington Biochemical, Lakewood, NJ) and 5 mM cysteine. The ganglia were then transferred to CMF Hank's with 3 mg/ml collagenase (type I; Worthington) and 4 mg/ml dispase (neutral type II; Roche Applied Science, Indianapolis, IN) for 20 minutes at 37°C. Individual neurons were dispersed by trituration through a fire-polished glass Pasteur pipette in 3 ml of media containing DMEM, 5% horse serum, 10% fetal bovine serum, 1% penicillin/streptomycin, and 100 ng/ml Nerve Growth Factor (7S subunit; Invitrogen). The neurons were preplated in tissue culture-treated Petri dishes for 1 hour when used for electrophysiology (3 hours for calcium imaging), and then plated on poly-L-lysine (1 mg/ml)-coated glass coverslips. Dorsal root ganglion neurons were allowed to settle for 1–2 hours at 37°C before patching or imaging over the next 6 hours.
as §2, §3

[6] = after citral inhibition of TRPV1

Chain of rat TRPV1 (rTRPV1) (O35433 whole entry): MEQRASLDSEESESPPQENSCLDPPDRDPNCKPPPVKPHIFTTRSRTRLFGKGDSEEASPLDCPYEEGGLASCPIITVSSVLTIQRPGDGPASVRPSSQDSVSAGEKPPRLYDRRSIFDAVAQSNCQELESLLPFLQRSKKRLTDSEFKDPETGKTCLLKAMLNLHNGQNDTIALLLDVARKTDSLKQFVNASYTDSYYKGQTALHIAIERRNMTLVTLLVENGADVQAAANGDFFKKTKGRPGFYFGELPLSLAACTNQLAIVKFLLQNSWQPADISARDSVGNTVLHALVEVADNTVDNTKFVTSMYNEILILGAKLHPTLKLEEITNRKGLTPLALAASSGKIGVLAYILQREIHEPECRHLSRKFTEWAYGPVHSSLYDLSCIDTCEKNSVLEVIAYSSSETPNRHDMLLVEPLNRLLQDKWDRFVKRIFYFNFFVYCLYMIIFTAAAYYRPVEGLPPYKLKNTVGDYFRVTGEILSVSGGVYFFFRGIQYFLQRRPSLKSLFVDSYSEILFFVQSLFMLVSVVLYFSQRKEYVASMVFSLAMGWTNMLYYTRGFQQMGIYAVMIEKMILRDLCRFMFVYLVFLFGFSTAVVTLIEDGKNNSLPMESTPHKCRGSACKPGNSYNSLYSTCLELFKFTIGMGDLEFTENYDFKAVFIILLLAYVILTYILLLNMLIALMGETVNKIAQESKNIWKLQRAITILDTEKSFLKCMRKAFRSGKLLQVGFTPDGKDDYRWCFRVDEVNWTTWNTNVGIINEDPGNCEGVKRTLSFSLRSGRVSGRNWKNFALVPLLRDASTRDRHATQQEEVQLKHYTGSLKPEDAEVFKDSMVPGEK
Chain of rat TRPA1 (rTRPA1) (Q6RI86 whole entry): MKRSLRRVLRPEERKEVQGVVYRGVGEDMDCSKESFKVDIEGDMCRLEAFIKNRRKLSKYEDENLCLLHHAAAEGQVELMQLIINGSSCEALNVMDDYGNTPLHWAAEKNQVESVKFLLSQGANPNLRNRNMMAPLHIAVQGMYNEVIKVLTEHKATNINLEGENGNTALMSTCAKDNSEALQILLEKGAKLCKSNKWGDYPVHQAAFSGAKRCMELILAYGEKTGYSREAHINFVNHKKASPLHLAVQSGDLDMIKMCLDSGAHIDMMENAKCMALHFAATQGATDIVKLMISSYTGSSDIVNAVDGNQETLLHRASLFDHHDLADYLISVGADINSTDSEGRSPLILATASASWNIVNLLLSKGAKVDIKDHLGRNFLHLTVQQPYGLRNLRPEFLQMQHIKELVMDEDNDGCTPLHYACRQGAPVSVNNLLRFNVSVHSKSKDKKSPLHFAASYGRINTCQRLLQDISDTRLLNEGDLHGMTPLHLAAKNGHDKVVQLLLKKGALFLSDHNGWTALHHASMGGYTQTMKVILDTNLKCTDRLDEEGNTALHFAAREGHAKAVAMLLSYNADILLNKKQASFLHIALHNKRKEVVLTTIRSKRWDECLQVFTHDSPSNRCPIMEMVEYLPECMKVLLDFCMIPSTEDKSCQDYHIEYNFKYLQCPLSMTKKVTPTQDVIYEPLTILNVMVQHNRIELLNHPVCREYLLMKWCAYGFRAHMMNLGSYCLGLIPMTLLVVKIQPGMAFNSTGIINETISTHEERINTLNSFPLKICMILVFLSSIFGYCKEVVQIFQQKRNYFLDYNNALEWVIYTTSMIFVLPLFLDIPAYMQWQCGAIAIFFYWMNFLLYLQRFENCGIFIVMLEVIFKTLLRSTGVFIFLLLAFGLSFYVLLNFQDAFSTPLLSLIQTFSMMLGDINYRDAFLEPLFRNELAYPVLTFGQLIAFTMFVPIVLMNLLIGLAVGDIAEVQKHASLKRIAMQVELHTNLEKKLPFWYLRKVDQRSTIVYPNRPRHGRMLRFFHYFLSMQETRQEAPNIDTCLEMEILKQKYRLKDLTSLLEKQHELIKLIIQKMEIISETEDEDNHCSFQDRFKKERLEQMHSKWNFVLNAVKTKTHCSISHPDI
Chain of rat TRPM8 (rTRPM8) (Q8R455 whole entry): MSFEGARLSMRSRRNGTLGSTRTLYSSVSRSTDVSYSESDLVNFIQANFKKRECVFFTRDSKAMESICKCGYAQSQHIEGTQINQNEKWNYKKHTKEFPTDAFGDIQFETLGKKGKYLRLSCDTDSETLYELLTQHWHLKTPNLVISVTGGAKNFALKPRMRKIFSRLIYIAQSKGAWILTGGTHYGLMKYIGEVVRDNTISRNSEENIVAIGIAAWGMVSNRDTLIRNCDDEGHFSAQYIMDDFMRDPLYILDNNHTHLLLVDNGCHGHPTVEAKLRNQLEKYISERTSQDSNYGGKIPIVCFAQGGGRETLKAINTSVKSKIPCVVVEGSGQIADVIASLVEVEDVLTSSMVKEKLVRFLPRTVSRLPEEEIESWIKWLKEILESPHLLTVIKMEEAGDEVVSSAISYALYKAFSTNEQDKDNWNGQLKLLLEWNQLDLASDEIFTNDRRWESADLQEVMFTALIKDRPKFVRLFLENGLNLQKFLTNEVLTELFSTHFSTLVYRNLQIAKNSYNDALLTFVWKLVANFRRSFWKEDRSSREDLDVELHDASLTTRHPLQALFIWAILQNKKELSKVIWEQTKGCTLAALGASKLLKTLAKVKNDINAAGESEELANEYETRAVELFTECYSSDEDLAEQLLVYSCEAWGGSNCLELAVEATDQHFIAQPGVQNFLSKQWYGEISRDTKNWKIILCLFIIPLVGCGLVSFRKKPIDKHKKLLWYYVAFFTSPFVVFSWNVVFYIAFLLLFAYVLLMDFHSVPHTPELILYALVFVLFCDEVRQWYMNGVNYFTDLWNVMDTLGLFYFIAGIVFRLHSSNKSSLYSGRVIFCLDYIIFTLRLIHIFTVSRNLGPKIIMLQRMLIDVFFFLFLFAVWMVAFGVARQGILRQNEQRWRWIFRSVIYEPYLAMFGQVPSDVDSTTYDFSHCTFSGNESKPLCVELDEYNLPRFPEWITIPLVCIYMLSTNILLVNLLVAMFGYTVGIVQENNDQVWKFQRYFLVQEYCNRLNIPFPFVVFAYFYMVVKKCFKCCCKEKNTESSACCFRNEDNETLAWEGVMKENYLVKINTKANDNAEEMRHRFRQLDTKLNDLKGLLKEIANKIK

With `CC(C)=CCC/C(C)=C\CO` [nerol] the “Decrease of pH 5-evoked TRPV1 current” value [1] was 50%, the “TRPV1 current recovered after washout” value ([1]; 1 mM, 5 minutes after washout, in 3 of 4 cells) was less than 1% and the inhibition at 1000 µM ([1]; HEK-293T, pH 5, 1 mM, sustained after 5 minutes washout, read-out: Inhibition of pH 5-evoked TRPV1 current) was 100%. For the same compound, the “Activation of TRPV1 current” value [1] was “weakly activated”, the “Activation of TRPA1 current” value [2] was “weakly activated” and the “Increase of TRPA1 current on second application” value ([2]; 1 mM, −100 mV, n = 4) was 2 fold. The “Activation of TRPM8 current” value [3] was “weakly activated” and the “Activation of TRPV3 current” value [4] was “weakly activated”.

With `CC(C)=CCC/C(C)=C\C=O` [neral] the “Activation of TRPV1 current” value [1] was “weakly activated”, the “Activation of TRPA1 current” value [2] was “weakly activated” and the “Activation of TRPM8 current” value [3] was “weakly activated”. For the same compound, the “Activation of TRPV3 current” value [4] was “weakly activated”.

With `CC(C)=CCC/C(C)=C/CO` [geraniol] the “Decrease of pH 5-evoked TRPV1 current” value [1] was 45%, the “Activation of TRPV1 current” value [1] was “weakly activated” and the “Activation of TRPA1 current” value [2] was “weakly activated”. The “Block of inward TRPA1 current” value ([2]; 1 mM, −100 mV, n = 9) was 70%, the “Activation of TRPM8 current” value [3] was “weakly activated” and the “Activation of TRPV3 current” value [4] was “weakly activated”.

For `CC12CCC(CC1=O)C2(C)C` (stereo not drawn) [camphor, reference compound], the “Increase in outward current” value ([5]; second 2-aminoethyldiphenyl borate responsive population) was 1.3 fold.

In the case of `NCCOB(c1ccccc1)c1ccccc1` [2-aminoethyldiphenyl borate, reference compound], the “Potentiation of current by repeated application, representative neuron” value ([5]; +100 mV) is reported as 2.3 fold, the “Cells with evoked currents among cells in which TRPV1 was inhibited” value [5, 6] is reported as 27 of 30 and the “Increase of current in cells in which TRPV1 was inhibited” value [5, 6] is reported as 3±0.4 fold. For the same compound, the “Potentiation of current by repetitive application” value ([5]; second responsive population (six of twelve neurons)) was 1.7±0.3 fold.

In the case of `CC(C)=CCC/C(C)=C/C=O` [geranial], the “Activation of TRPV1 current” value [1] is reported as “weakly activated”, the “Activation of TRPA1 current” value [2] is reported as “weakly activated” and the “Activation of TRPM8 current” value [3] is reported as “weakly activated”. For the same compound, the “Activation of TRPV3 current” value [4] was “weakly activated”.
